The NIST ThermoML archive (doi:10.1021/je300799f)

Legend:
[1] = Liquid; for mass density: 101.3 kPa, Vibrating tube method; for vapor or sublimation pressure: Ebulliometric method (Recirculating still)
[2] = refractive index (Na D-line) (dimensionless); settings: 298.15 K; 101.33 kPa; Liquid; Standard Abbe refractometry
[3] = xn = mol fraction of the nth substance listed; settings: 101 kPa, Liquid, Vibrating tube method, x2 = 0

CCCC(=O)OCC [ethyl butanoate]
[1]
Settings | mass density [kg/m3] | vapor or sublimation pressure [kPa]
288.15 K | 884.01 | –
298.15 K | 873.5 | –
308.15 K | 862.85 | –
318.15 K | 852.26 | –
328.15 K | 841.55 | –
377.33 K | – | 60
378.63 K | – | 62.5
379.81 K | – | 65
380.99 K | – | 67.5
382.1 K | – | 70
383.23 K | – | 72.5
384.31 K | – | 75
385.34 K | – | 77.5
386.35 K | – | 80
387.34 K | – | 82.5
388.31 K | – | 85
389.25 K | – | 87.5
390.17 K | – | 90
391.06 K | – | 92.5
391.94 K | – | 95
392.81 K | – | 97.5
393.66 K | – | 100
394.26 K | – | 101.32
394.31 K | – | 101.32
395.43 K | – | 105
397.05 K | – | 110
398.57 K | – | 115
400.1 K | – | 120
401.54 K | – | 125
402.99 K | – | 130
404.34 K | – | 135
405.62 K | – | 140
406.96 K | – | 145
408.22 K | – | 150
409.45 K | – | 155
410.61 K | – | 160
411.77 K | – | 165
412.95 K | – | 170
414.05 K | – | 175
415.01 K | – | 180
416.08 K | – | 185
417.14 K | – | 190
418.15 K | – | 195
419.14 K | – | 200
420.12 K | – | 205
421.1 K | – | 210
422.01 K | – | 215
422.94 K | – | 220
423.85 K | – | 225
424.79 K | – | 230
425.67 K | – | 235
426.53 K | – | 240
427.35 K | – | 245
428.2 K | – | 250
429.04 K | – | 255
429.84 K | – | 260
430.65 K | – | 265
431.42 K | – | 270
432.23 K | – | 275
433 K | – | 280

Settings | refractive index
[2] | 1.3898

CCCCCCC [heptane]
[1]
Settings | mass density [kg/m3] | vapor or sublimation pressure [kPa]
288.15 K | 688.16 | –
298.15 K | 679.62 | –
308.15 K | 670.96 | –
318.15 K | 662.33 | –
328.15 K | 653.61 | –
346.23 K | – | 45
347.76 K | – | 47.5
349.29 K | – | 50
350.7 K | – | 52.5
352.07 K | – | 55
353.41 K | – | 57.5
354.69 K | – | 60
355.94 K | – | 62.5
357.14 K | – | 65
358.32 K | – | 67.5
359.45 K | – | 70
360.54 K | – | 72.5
361.61 K | – | 75
362.66 K | – | 77.5
363.68 K | – | 80
364.71 K | – | 82.5
365.65 K | – | 85
366.61 K | – | 87.5
367.53 K | – | 90
368.42 K | – | 92.5
369.32 K | – | 95
370.19 K | – | 97.5
371.07 K | – | 100
371.38 K | – | 101.32
371.51 K | – | 101.32
372.72 K | – | 105
374.31 K | – | 110
375.85 K | – | 115
377.34 K | – | 120
378.77 K | – | 125
380.18 K | – | 130
381.52 K | – | 135
382.84 K | – | 140
384.13 K | – | 145
385.36 K | – | 150
386.6 K | – | 155
387.78 K | – | 160
388.94 K | – | 165
390.08 K | – | 170
391.17 K | – | 175
392.25 K | – | 180
393.3 K | – | 185
394.34 K | – | 190
395.37 K | – | 195
396.37 K | – | 200
397.35 K | – | 205
398.29 K | – | 210
399.24 K | – | 215
400.17 K | – | 220
401.07 K | – | 225
401.97 K | – | 230
402.84 K | – | 235
403.72 K | – | 240
404.57 K | – | 245
405.42 K | – | 250
406.25 K | – | 255
407.05 K | – | 260
407.87 K | – | 265
408.65 K | – | 270
409.42 K | – | 275
410.22 K | – | 280

Settings | refractive index
[2] | 1.3853

CCCCCCC [heptane] + CCCC(=O)OC
[3]
Settings | mass density [kg/m3]
288.15 K | 688.16
298.15 K | 679.62
308.15 K | 670.96
318.15 K | 662.33
328.15 K | 653.61

CCCCCCC [heptane] + CCCC(=O)OCC
[3]
Settings | mass density [kg/m3]
288.15 K | 688.16
298.15 K | 679.62
308.15 K | 670.96
318.15 K | 662.33
328.15 K | 653.61

CCCC(=O)OC [methyl butanoate]
[1]
Settings | mass density [kg/m3] | vapor or sublimation pressure [kPa]
288.15 K | 903.31 | –
298.15 K | 892.31 | –
308.15 K | 881.19 | –
318.15 K | 870.06 | –
328.15 K | 858.8 | –
354.1 K | – | 50
355.47 K | – | 52.5
356.79 K | – | 55
358.1 K | – | 57.5
359.34 K | – | 60
360.56 K | – | 62.5
361.72 K | – | 65
362.84 K | – | 67.5
363.94 K | – | 70
364.99 K | – | 72.5
366.05 K | – | 75
367.04 K | – | 77.5
368.03 K | – | 80
369 K | – | 82.5
370.01 K | – | 85
370.93 K | – | 87.5
371.84 K | – | 90
372.72 K | – | 92.5
373.58 K | – | 95
374.42 K | – | 97.5
375.27 K | – | 100
375.74 K | – | 101.32
376.91 K | – | 105
378.42 K | – | 110
379.91 K | – | 115
381.34 K | – | 120
382.73 K | – | 125
384.07 K | – | 130
385.37 K | – | 135
386.63 K | – | 140
387.87 K | – | 145
389.07 K | – | 150
390.24 K | – | 155
391.38 K | – | 160
392.48 K | – | 165
393.58 K | – | 170
394.64 K | – | 175
395.67 K | – | 180
396.7 K | – | 185
397.68 K | – | 190
398.67 K | – | 195
399.61 K | – | 200
400.54 K | – | 205
401.46 K | – | 210
402.37 K | – | 215
403.25 K | – | 220
404.13 K | – | 225
404.97 K | – | 230
405.81 K | – | 235
406.64 K | – | 240
407.45 K | – | 245
408.26 K | – | 250
409.05 K | – | 255
409.83 K | – | 260
410.58 K | – | 265
411.35 K | – | 270
412.09 K | – | 275
412.83 K | – | 280

Settings | refractive index
[2] | 1.3851

CCCCCCCCC [nonane]
[1]
Settings | mass density [kg/m3] | vapor or sublimation pressure [kPa]
288.15 K | 721.65 | –
298.15 K | 713.85 | –
308.15 K | 705.96 | –
318.15 K | 698.06 | –
328.15 K | 690.17 | –
395.53 K | – | 45
397.25 K | – | 47.5
398.89 K | – | 50
400.5 K | – | 52.5
402.04 K | – | 55
403.51 K | – | 57.5
404.94 K | – | 60
406.33 K | – | 62.5
407.66 K | – | 65
408.95 K | – | 67.5
410.24 K | – | 70
411.45 K | – | 72.5
412.64 K | – | 75
413.81 K | – | 77.5
414.94 K | – | 80
416.07 K | – | 82.5
417.16 K | – | 85
418.22 K | – | 87.5
419.24 K | – | 90
420.25 K | – | 92.5
421.24 K | – | 95
422.22 K | – | 97.5
423.18 K | – | 100
423.87 K | – | 101.32
423.9 K | – | 101.32
425.1 K | – | 105
426.76 K | – | 110
428.48 K | – | 115
430.15 K | – | 120
431.71 K | – | 125
433.28 K | – | 130
434.77 K | – | 135
436.25 K | – | 140
437.64 K | – | 145
439.03 K | – | 150
440.38 K | – | 155
441.68 K | – | 160
442.99 K | – | 165
444.25 K | – | 170
445.46 K | – | 175
446.65 K | – | 180
447.83 K | – | 185
448.99 K | – | 190
450.12 K | – | 195
451.2 K | – | 200
452.29 K | – | 205
453.35 K | – | 210
454.41 K | – | 215
455.44 K | – | 220
456.45 K | – | 225
457.45 K | – | 230
458.43 K | – | 235
459.41 K | – | 240
460.35 K | – | 245
461.28 K | – | 250
462.19 K | – | 255
463.08 K | – | 260
463.95 K | – | 265
464.86 K | – | 270
465.73 K | – | 275
466.59 K | – | 280

Settings | refractive index
[2] | 1.4032

CCCCCCCCC [nonane] + CCCC(=O)OC
[3]
Settings | mass density [kg/m3]
288.15 K | 721.65
298.15 K | 713.85
308.15 K | 705.96
318.15 K | 698.06
328.15 K | 690.17

CCCCCCCCC [nonane] + CCCC(=O)OCC
[3]
Settings | mass density [kg/m3]
288.15 K | 721.65
298.15 K | 713.85
308.15 K | 705.96
318.15 K | 698.06
328.15 K | 690.17
